Laboratory results reported in patent US20050003029A1, “UTILIZATION OF RUTINS AND AESCINS IN THE TREATMENT OF OCULAR CIRCULATORY DISTURBANCES” (priority 2001, published 2005).

System: retinal hemorrhages and vascular leakages
Experiment: Efficacy case examples: oral therapy of patients with retinal hemorrhages and vascular leakages, detected by fluorescence angiography
Type: in vivo, human
Conditions: orally daily
From the text: (§1) patient with severe visual impairment.
2 relatively small intraretinal hemorrhages on the retina existed, further 8 vascular leakages stainable with fluorescein sodium and detectable using fluorescence angiography. The finding existed for 4 months with the tendency to worsen. The basic disease present was a generalized sclerotic vascular complaint.
patient with suddenly commencing visual impairment, which had existed for 5 months.
A relatively large intraretinal strip hemorrhage existed as a result of a branch vein thrombosis, further 3 vascular leakages detectable by fluorescence angiography. The basic disease present was latent diabetes mellitus.
as §1
1 relatively large and 2 smaller retinal hemorrhages existed; further three vascular leakages which were detectable using fluorescence angiography. The basic disease was a generalized vascular complaint. The finding existed for 5 months with the tendency for increasing worsening.
as §1
A large subretinal hemorrhage existed, further 2 vascular leakages detectable by fluorescence angiography. A risk factor to be seen was the taking for years of a hormonal anticontraceptive.

CC1OC(OCC2OC(Oc3c(-c4ccc(OCCO)c(OCCO)c4)oc4cc(OCCO)cc(O)c4c3=O)C(O)C(O)C2O)C(O)C(O)C1O (stereo not drawn) [troxerutin, 3′,4′,7-tris-O-(β-hydroxyethyl)rutin]
leakages sealed (Case example 1, after 2 weeks): 1 leakages
leakages sealed (total) (Case example 1, after 4 weeks): 3 leakages
intraretinal hemorrhages (status) (Case example 1, four-week therapy, 2 relatively small hemorrhages): unchanged
vascular leakages (status) (Case example 2, three-week therapy, 3 leakages before): unchanged
resorption of intraretinal strip hemorrhage (Case example 2, three-week therapy, measured by the starting size): 10%
resorption of a small hemorrhage (Case example 3, patient, three-week therapy): low-grade beginning of resorption
leakages sealed (Case example 3, three-week therapy): 1 leakages
leakages sealed (Case example 4, 2 leakages before): 1 leakages
resorption of the large subretinal hemorrhage (Case example 4, combination three weeks, measured by the starting size): approximately 5%
